Patent US20100022559A1, “BISOXIMES AS FUNGICIDES” (BAYER CROPSCIENCE AG, priority 2006, published 2010)

assay: logP determination by HPLC on a reversed-phase column (C 18), EEC Directive 79/831 Annex V.A8; format: physicochemical; settings: [a] acidic range, pH 2.3, 0.1% aqueous phosphoric acid and acetonitrile
Procedure: The stated logP values were determined in accordance with EEC Directive 79/831 Annex V.A8 by HPLC (high performance liquid chromatography) on a reversed-phase column (C 18). Temperature: 43° C.

Row | SMILES | logP
1 | C/C(=N\OCC(C)CON)c1cc(C(F)(F)F)cc(C)n1 (racemic) [XII-15] | 2.33^[a]

same assay, conditions: [b] LC-MS, acidic range, pH 2.7, 0.1% aqueous formic acid and acetonitrile

Row | SMILES | logP
2 | C/C(=N\OCC(C)CON)c1cc(C(F)(F)F)cc(C)n1 (racemic) [XII-15] | 2.33^[b]

same assay, conditions: [c] LC-MS, neutral range, pH 7.8, 0.001 molar aqueous ammonium bicarbonate solution and acetonitrile

Row | SMILES | logP
3 | C/C(=N\OCC(C)CON)c1cc(C(F)(F)F)cc(C)n1 (racemic) [XII-15] | 3.38^[c]

same assay, conditions: method marked [a] in Table 1

Row | SMILES | logP
4 | CC(=NOCC(C)(C)CON=C(C)c1cccc(-c2ccccc2)n1)c1cccc(-c2ccccc2)n1 [Compound 575] | 7.36^[a]

same assay, conditions: method marked [b] in Table 1

Row | SMILES | logP
5 | C=C(CON=C(C)c1ccc[nH]1)CON=C(C)c1ccc[nH]1 [compound 564] | 3.23^[b]
6 | CCCC(=NOCC1(CON=C(CCC)c2cccc(C)n2)CC(c2ccccc2)=NO1)c1cccc(C)n1 (centres unmarked) [compound 621] | 5.9^[b]
7 | CCCC(=NOCC1(CON=C(CCC)c2cccc(C)n2)CC(C=C(C)C)=NO1)c1cccc(C)n1 (centres unmarked) [compound 625] | 5.97^[b]
8 | Cc1cc(C)nc(/C(N)=N/OCc2cccc(CO/N=C(\N)c3cc(C)cc(C)n3)c2)c1 [compound 726] | 3.63^[b]
9 | CC(=NOC(=O)N(C)C(=O)ON=C(C)c1cc(C)cc(C)n1)c1cc(C)cc(C)n1 [compound 676] | 2.21^[b]
10 | CC(=NOCc1cccc(CON=C(C)c2nc(C)c(C)s2)c1)c1nc(C)c(C)s1 [compound 732] | 5.71^[b]
11 | Cc1nc(/C(N)=N/OCc2ccc(CO/N=C(\N)c3nc(C)c4c(n3)CCCC4)cc2)nc2c1CCCC2 [compound 717] | 3.09^[b]
12 | Cc1nc(/C(N)=N/OCc2ccccc2CO/N=C(\N)c2nc(C)c(Cl)c(C)n2)nc(C)c1Cl [compound 709] | 3.41^[b]
13 | C=C(CON=Cc1cc(C(F)(F)F)cc(C)n1)CON=C(C)c1cccc(C)n1 (mixture of isomers) [Compound 671] | 4.61^[b]
14 | COCc1nc(/C(N)=N/OCc2cccc(CO/N=C(\N)c3nc(COC)c(C)c(COC)n3)c2)nc(COC)c1C [compound 713] | 2.06^[b]

Now from value to compound:

Row | logP | SMILES
15 | 3.65^[b] | CC(=NOCC1(CON=C(C)c2ccc(C)c(C)n2)CC(C(C)(C)C)=NO1)c1ccc(C)c(C)n1 (centres unmarked) [compound 631]
16 | 2.11^[b] | CC(=NOCC1(CON=C(C)c2cc(C)cc(C)n2)CC1)c1cc(C)cc(C)n1 [Compound 556]
17 | 3.70^[b] | CC(C)=CC1=NOC(CO/N=C(\C)c2cccc(C)n2)(CO/N=C(\C)c2cccc(C)n2)C1 [compound 604]
18 | 3.06^[b] | CC(=NOCC1(CON=C(C)c2ccc(C)c(C)n2)CC(C(C)C)=NO1)c1ccc(C)c(C)n1 (centres unmarked) [compound 627]
19 | 3.19^[b] | CC(=NOCC1(CON=C(C)c2cc(C)cc(C)n2)CC(c2ccccc2Cl)=NO1)c1cc(C)cc(C)n1 (centres unmarked) [compound 645]
20 | 3.15^[b] | CC(=NOCC(C)(C)CON=C(C)c1ccc(C)c(C)n1)c1cc(C)cc(C)n1 [Compound 697]
21 | 3.33^[b] | CCCC1=NOC(CON=C(C)c2cccc(C)n2)(CON=C(C)c2cccc(C)n2)C1 (centres unmarked) [compound 598]
22 | 2.18^[b] | CC(=NOCC1(CON=C(C)c2cc(C)cc(C)n2)CC(C(C)C)=NO1)c1cc(C)cc(C)n1 (centres unmarked) [compound 638]

same assay, conditions: method marked [c] in Table 1

Row | SMILES | logP
23 | CC(=NOCC1(CON=C(C)c2cc(C)cc(C)n2)CC1)c1cc(C)cc(C)n1 [Compound 556] | 5.97^[c]
24 | C=C(CON=C(C)c1ccc[nH]1)CON=C(C)c1ccc[nH]1 [compound 564] | 3.20^[c]
25 | CC(=NOCC(C)(C)CON=C(C)c1ccc(C)c(C)n1)c1cc(C)cc(C)n1 [Compound 697] | 6.70^[c]

same assay, conditions: method marker [a] (footnote not shown); isomer A / isomer B / isomer mixture as noted in the cell

Row | SMILES | logP
26 | CC(=NOCCCON=C(C)c1ncccc1C)c1ncccc1C (single isomer, unassigned) [compound 85] | 2.15^[a] (isomer A)
27 | CC(=NOCC(C)CON=C(C)c1csc(Cl)n1)c1csc(Cl)n1 (mixture of isomers) [compound 231] | 5.16^[a]
28 | CC(=NOCCCON=C(C)c1ncccc1C)c1ncccc1C (single isomer, unassigned) [compound 84] | 2.51^[a] (isomer B)
29 | Cc1cccc(C(=NOCC(C)CON=C(c2cccc(C)n2)C2CC2)C2CC2)n1 (single isomer, unassigned) [compound 162] | 3.28^[a] (isomer A)
30 | CCC(=NOCCCCON=C(CC)c1cccc(C)n1)c1cccc(C)n1 (mixture of isomers) [compound 223] | 4.86^[a]
31 | CC(=NOCC1(CON=C(C)c2cccc(C)n2)CCO1)c1ccccn1 (racemic) [compound 26] | 2.29^[a]

same assay, conditions: method marker [b]; isomer A / isomer B / isomer mixture as noted in the cell

Row | SMILES | logP
32 | CC(=NOCCCON=C(C)c1cccnc1)c1cccnc1 [compound 33] | 1.51^[b]
33 | C=C(CON=C(C)c1cccc(C)n1)CON=C(N)c1ncc(C(F)(F)F)cc1Cl [compound 245] | 3.50^[b]
34 | C=C(CON=C(C)c1nc(C)c(C)s1)CON=C(C)c1nc(C)c(C)s1 (single isomer, unassigned) [compound 69] | 4.99^[b] (isomer A)
35 | C=C(CON=C(C)c1cccc(C)n1)CON=C(N)c1nccc(C)n1 [compound 187] | 1.73^[b]
36 | C=C(CON=C(C)c1ccccn1)CON=C(C)c1ccccn1 [compound 60] | 3.00^[b]
37 | CC(=NOCC1(CON=C(C)c2cccc(C)n2)CCO1)c1ccccn1 (racemic) [compound 26] | 2.43^[b]
38 | C=C(CON=C(C)c1cccc(C)n1)CON=C(C)c1ncc(C(F)(F)F)cc1Cl (single isomer, unassigned) [compound 135] | 4.95^[b] (isomer B)
39 | CC(=NOCON=C(C)c1ccccn1)c1ccccn1 [Compound 59] | 2.23^[b]
40 | C=C(CON=C(C)c1cccc(C)n1)CON=C(CC)c1ncccc1C (single isomer, unassigned) [compound 143] | 3.23^[b] (isomer A)

Further lines, results first:

Row | logP | SMILES
41 | 1.91^[b] | CC(=NOCC(CON=C(C)c1cccc(C)n1)=NO)c1cccc(C)n1 [compound 82]
42 | 3.17^[b] | C=C(CON=C(N)c1cc(C)cc(C)c1)CON=C(C)c1cccc(C)n1 [compound 185]
43 | 1.97^[b] | C=C(CON=C(C)c1cccc(C)n1)CON=C(N)c1nc(C)cc(C)n1 [compound 192]
44 | 2.7^[b] | C=C(CON=C(N)c1cc(C)cc(C)n1)CON=C(N)c1cc(C)cc(C)n1 [compound 127]
45 | 3.85^[b] | CC(=NOCCCCCON=C(C)c1cccc(C)n1)c1cccc(C)n1 [Compound 11]
46 | 3.94^[b] | C=C(CON=C(C)c1ccc(Cl)nc1)CON=C(C)c1cccc(C)n1 [compound 201]

same assay, conditions: reversed-phase HPLC column (C 18); HCO2H; HPLC reversed-phase column (C 18), 43° C.; read-out: logP (HCO2H)

Row | SMILES | chromatographic logP
47 | C/C(=N\OCC(C)(C)CCl)c1cccc(C)n1 [VI-1, (1E)-1-(6-methylpyridin-2-yl)ethanone O-(3-chloro-2,2-dimethylpropyl)oxime] | 3.76

same assay, conditions: value marked [a]

Row | SMILES | logP
48 | C=C(CON=C(c1cccc(C)n1)C1CC1)CON=C(c1cccc(C)n1)C1CC1 (mixture of isomers) [Compound 312] | 3.10^[a]
49 | CCOC(=O)c1cccc(C(C)=NOCC(C)CON=C(C)c2cccc(C(=O)OCC)n2)n1 (centres unmarked) [compound 258] | 5.03^[a]
50 | C=C(CON=C(c1cccc(C)n1)C1CC1)CON=C(c1cccc(C)n1)C1CC1 (single isomer, unassigned) [Compound 311] | 3.29^[a] (isomer B)
51 | CC(=NOCCCON=C(C)c1ccc2c(n1)CCC2)c1ccc2c(n1)CCC2 [Compound 302] | 3.28^[a]

More lines, now with the values ahead:

Row | logP | SMILES
52 | 6.72^[a] | CC(=NOC[Si](C)(CON=C(C)c1cccc(C)n1)C(C)C)c1cccc(C)n1 [Compound 834]
53 | 5.22^[a] | CCCC(=NOCCCON=C(CCC)c1ccc(C)c(C)n1)c1ccc(C)c(C)n1 (mixture of isomers) [Compound 260]
54 | 2.06^[a] | CC(=NOC(=O)NCCCC(C)CNC(=O)ON=C(C)c1cc(C)cc(C)n1)c1cc(C)cc(C)n1 (centres unmarked) [compound 862]
55 | 4.78^[a] | CC(=NOCC(C)(C)CON=C(C)c1ccc2c(n1)CCC2)c1ccc2c(n1)CCC2 [Compound 301]

same assay, conditions: value marked [b]

Row | SMILES | logP
56 | COc1cccc(C(C)=NOCCCCCCON=C(C)c2cccc(C)n2)c1 [compound 457] | 5.59^[b]
57 | C=C(CON=C(C)c1ccc(OC)c(OC)c1)CON=C(C)c1cccc(C)n1 [compound 403] | 3.75^[b]
58 | CC(=NOCCCCCCON=C(C)c1cccc(C)n1)c1ccc2c(c1)CC(C)O2 (centres unmarked) [compound 455] | 5.97^[b]
59 | C=C(CON=C(C)c1cccc(C)n1)CON=C(c1cccc(C)n1)C(C)C [Compound 359] | 4.72^[b] (isomer B)
60 | CC(=NOCC(C)CON=C(c1cccc(C)n1)C1CC1)c1cccc(C)n1 (centres unmarked) [Compound 429] | 3.61^[b]
61 | C=C(CON=C(C)c1cccc(Cl)c1)CON=C(C)c1cccc(C)n1 [compound 469] | 5.31^[b]
62 | CC(=NOCC(C)CON=C(C)c1cccc(C)n1)c1ccc2c(c1)OCO2 (centres unmarked) [compound 435] | 4.57^[b]
63 | CC(=NOCCCCON=C(C)c1cccc(Cc2ccccc2)n1)c1cccc(C)n1 [compound 324] | 5.84^[b]

Second part, the compound after the results:

Row | logP | SMILES
64 | 6.72^[b] | CC(=NOC[Si](C)(CON=C(C)c1cccc(C)n1)C(C)C)c1cccc(C)n1 [Compound 834]
65 | 5.97^[b] | CC(=NOCCCCON=C(C)c1cccc(C(C)C)n1)c1cccc(C)n1 [compound 452]
66 | 3.28^[b] | CC(=NOCCCCON=C(C)c1ccnc(C)n1)c1cccc(C)n1 [compound 336]
67 | 2.89^[b] | CC(=NOC/C=C/CON=C(C)c1cccc(C)n1)c1cccc(C)n1 [Compound 777]
68 | 3.77^[b] | CC(=NOCC1(CON=C(C)c2nc(C)ccc2C)CCC1)c1nc(C)ccc1C (single isomer, unassigned) [compound 761]
69 | 2.41^[b] | CC(=NOCC(C)(C)CON=C(C)c1cccc(C)n1)c1ccc(C)nc1 [Compound 416]
70 | 6.16^[b] | CC(=NOCC(C)(C)CON=C(C)c1cccc(C)n1)c1cccc(C(F)(F)F)c1 [compound 410]
71 | 4.15^[b] | COc1cc(C)nc(C(C)=NOCCCCCCON=C(C)c2cccc(C)n2)c1 [compound 462]
72 | 6.22^[b] | CC(=NOCC(C)(C)CON=C(C)c1cccc(C)n1)c1cccc(Cl)c1 [Compound 483]
73 | 3.70^[b] | CC(=NOCC(C)(C)CON=C(C)c1cccc(C)n1)c1cnccn1 [compound 515]
74 | 2.76^[b] | C=C(CON=C(C)c1cc(C)ccn1)CON=C(C)c1cccc(C)n1 [compound 398]
75 | 3.28^[b] | CC(=NOCC(C)CON=C(C)c1cccc(C)n1)c1cnccn1 (centres unmarked) [compound 507]

same assay, conditions: value marked [c]

Row | SMILES | logP
76 | CC(=NOC[Si](C)(CON=C(C)c1cccc(C)n1)C(C)C)c1cccc(C)n1 [Compound 834] | 7.35^[c]
77 | CC(=NOCC1(CON=C(C)c2nc(C)ccc2C)CCC1)c1nc(C)ccc1C (single isomer, unassigned) [compound 761] | 5.84^[c]
